From ChEMBL document CHEMBL6096630, “Enhancing therapeutic efficacy in homologous recombination-proficient pancreatic cancer via the combination of PARP1-PROTAC and a BRD4 inhibitor” (Bioorg Med Chem, 2024) come the findings set out here.

Activity calls are given as the source filed them. No cut-off for these calls is given here. Bounds are passed on as bounds.

In series [1] the test system is PANC-1. Nature of the series: Anti-invasive activity in human PANC-1 cells at 2 uM in presence of JQ1 incubated for 48 hrs by Matrigel assay relative to control. It counts as functional.
In series [2] the test system is PANC-1. Briefly: Anti-migration activity in human PANC-1 cells at 2 uM in presence of JQ1 incubated for 24 hrs by transwell assay relative to control. It counts as functional.
The test system of series [3] is PANC-1. Nature of the series: Anti-invasive activity in human PANC-1 cells assessed as increase in invasion inhibition at 2 uM in presence of JQ1 incubated for 48 hrs by Matrigel assay relative to combination of OL/JQ1. Type of series: functional. Also on record: scale not given: the % may be the effect or the level left.
For series [4], the system named is PANC-1. Briefly: Synergistic antiproliferative activity against human PANC-1 cells expressing wild-type BRCA assessed as inhibition of cell viability incubated for 5 days in presence of JQ1 by CCK8 assay. It counts as functional, cell-based. Conditions: time 5.0 day. On the technique in general: Tetrazolium dyes change colour on reduction, which living cells bring about.

The test system of series [5] is PANC-1. Briefly: Induction of apoptosis in human PANC-1 cells assessed as increase in Bax level at 2 uM incubated for 48 hrs in presence of JQ1 by Western blot analysis. Type of series: functional, cell-based. On the technique in general: In western blotting, separated proteins are transferred to a membrane and probed.
For series [6], the system named is PANC-1. Nature of the series: Induction of cell cycle arrest in human PANC-1 cells assessed as decrease in CDK6 level at 2 uM incubated for 24 hrs in presence of JQ1 by […]. It counts as functional. For orientation: In flow cytometry, cells or beads pass a laser one at a time.
In series [7] the test system is PANC-1. Nature of the series: Induction of DNA damage in human PANC-1 cells assessed as increase in gamma-H2AX level at 0.6 to 10 uM incubated for 48 hrs by Western blot analysis. Conditions: dose 0.6-10 µM. Type of series: functional, cell-based.
Series [8] has as its target Protein cereblon/Poly [ADP-ribose] polymerase 1 (Homo sapiens, UniProt P09874+Q96SW2). Briefly: PROTAC activity at CRBN/PARP1 in human PANC-1 cells assessed as induction of PARP1 degradation incubated for 24 hrs by Western blot analysis relative to control. It counts as cell-based.
The test system of series [9] is PANC-1. Briefly: Synergistic antiproliferative activity against human PANC-1 cells expressing wild-type BRCA assessed as combination index at 2:1 ratio of compound:JQ1 incubated for 5 days by CCK8 assay. Type of series: functional. Conditions: time 5 day.
The subject of series [10] is PANC-1. Briefly: Induction of DNA damage in human PANC-1 cells assessed as decrease in BRCA1 level at 1 uM in presence of OL by Western blot analysis. It counts as functional, cell-based.
Series [11] deals with PANC-1. Briefly: Induction of cell cycle arrest in human PANC-1 cells assessed as accumulation at G1 phase at 1 uM incubated for 24 hrs by PI staining based flow cytometry (reference value: 51.70 %). Type of series: functional.
The test system of series [12] is PANC-1. Briefly: Induction of apoptosis in human PANC-1 cells assessed as early apoptotic cells at 0.25 uM incubated for 48 hrs by Annexin V-FITC/PI staining based flow cytometry (reference value: 1.41 %). Type of series: functional.
In series [13] the test system is PANC-1. Nature of the series: Induction of apoptosis in human PANC-1 cells assessed as viable cells at 1 uM incubated for 48 hrs by Annexin V-FITC/PI staining based flow cytometry (reference value: 91.64 %). It counts as functional. The settings on record: read-out: Activity.
Series [14] deals with PANC-1. Nature of the series: Induction of apoptosis in human PANC-1 cells assessed as early apoptotic cells at 1 uM incubated for 48 hrs in presence of OL by Annexin V-FITC/PI staining based flow cytometry (reference value: 1.41 %). It counts as functional.
Series [15] has as its system PANC-1. Briefly: Induction of cell cycle arrest in human PANC-1 cells assessed as accumulation at G1 phase at 0.5 uM incubated for 24 hrs by PI staining based flow cytometry (reference value: 51.70 %). Type of series: functional.
Series [16] has as its system PANC-1. Nature of the series: Induction of cell cycle arrest in human PANC-1 cells assessed as accumulation at G1 phase at 0.12 uM incubated for 24 hrs by PI staining based flow cytometry (reference value: 51.70 %). Type of series: functional.
Series [17] can be described thus: Toxicity in BALB/c mouse xenografted with human PANC-1 cells assessed as animal mortality at 20 mg/kg, ip for 4 weeks administered for 5 days consecutively and 2 days without treatment on every week in presence of OL. It counts as organism-based. The settings on record: in vivo, 672 h.
Series [18] relates to PANC-1. Briefly: Antitumor activity against human PANC-1 cells xenografted in BALB/c mouse at 20 mg/kg, ip for 4 weeks administered for 5 days consecutively and 2 days without treatment on every week in presence of OL relative to control. Type of series: functional. Conditions: PANC-1, 672 h, read-out: TGI.
The nature of series [19]: Toxicity in BALB/c mouse xenografted with human PANC-1 cells assessed as drug tolerance at 20 mg/kg, ip for 4 weeks administered for 5 days consecutively and 2 days without treatment on every week in presence of OL. Type of series: organism-based. Conditions: in vivo, 672 h.
Series [20] has as its system PANC-1. Nature of the series: Induction of cell cycle arrest in human PANC-1 cells assessed as accumulation at G1/S phase at 0.12 to 2 uM incubated for 24 hrs by PI staining based flow cytometry. Type of series: functional. The settings on record: dose 0.12-2 µM.
The nature of series [21]: Toxicity in BALB/c mouse xenografted with human PANC-1 cells assessed as pathological changes in heart at 20 mg/kg, ip for 4 weeks administered for 5 days consecutively and 2 days without treatment on every week by H and E staining based analysis. Type of series: organism-based. The settings on record: in vivo, 672 h.
The subject of series [22] is PANC-1. Briefly: Induction of apoptosis in human PANC-1 cells assessed as necrotic cells at 1 uM incubated for 48 hrs by Annexin V-FITC/PI staining based flow cytometry (reference value: 3.09 %). Type of series: functional.
Series [23] in a line: Toxicity in BALB/c mouse xenografted with human PANC-1 cells assessed as pathological changes in kidney at 20 mg/kg, ip for 4 weeks administered for 5 days consecutively and 2 days without treatment on every week by H and E staining based analysis. Type of series: organism-based. The settings on record: in vivo, 672 h.
Series [24] relates to PANC-1. Briefly: Induction of apoptosis in human PANC-1 cells assessed as necrotic cells at 0.25 uM incubated for 48 hrs by Annexin V-FITC/PI staining based flow cytometry (reference value: 3.09 %). Type of series: functional.
Series [25] has as its system PANC-1. Nature of the series: Induction of DNA damage in human PANC-1 cells assessed as decrease in RAD51 level at 1 uM in presence of OL by Western blot analysis. Type of series: functional, cell-based.
Series [26] relates to PANC-1. Nature of the series: Induction of cell cycle arrest in human PANC-1 cells assessed as accumulation at S phase at 0.5 uM incubated for 24 hrs by PI staining based flow cytometry (reference value: 38.94 %). Type of series: functional.
The nature of series [27]: Toxicity in BALB/c mouse xenografted with human PANC-1 cells assessed as drug tolerance at 20 mg/kg, ip for 4 weeks administered for 5 days consecutively and 2 days without treatment on every week. It counts as organism-based. Conditions: in vivo, 672 h.
Series [28] relates to PANC-1. Briefly: Induction of apoptosis in human PANC-1 cells assessed as late apoptotic cells at 1 uM incubated for 48 hrs in presence of OL by Annexin V-FITC/PI staining based flow cytometry (reference value: 3.87 %). Type of series: functional.
For series [29], the system named is PANC-1. Nature of the series: Induction of cell cycle arrest in human PANC-1 cells assessed as accumulation at G2 phase at 1 uM incubated for 24 hrs by PI staining based flow cytometry (reference value: 9.36 %). Type of series: functional.
Series [30] relates to PANC-1. Nature of the series: Antitumor activity against human PANC-1 cells xenografted in BALB/c mouse assessed as reduction in tumor growth at 20 mg/kg, ip for 4 weeks administered for 5 days consecutively and 2 days without treatment on every week in presence of OL. It counts as functional, organism-based.
Series [31] is described as follows: Toxicity in BALB/c mouse xenografted with human PANC-1 cells assessed as animal mortality at 20 mg/kg, ip for 4 weeks administered for 5 days consecutively and 2 days without treatment on every week. The settings on record: in vivo, 672 h. Type of series: organism-based.
For series [32], the system named is PANC-1. Nature of the series: Induction of cell cycle arrest in human PANC-1 cells assessed as accumulation at S phase at 1 uM incubated for 24 hrs in presence of OL by PI staining based flow cytometry (reference value: 38.94 %). It counts as functional.

Chain of Protein cereblon/Poly [ADP-ribose] polymerase 1 (P09874 2-1014 limits assumed): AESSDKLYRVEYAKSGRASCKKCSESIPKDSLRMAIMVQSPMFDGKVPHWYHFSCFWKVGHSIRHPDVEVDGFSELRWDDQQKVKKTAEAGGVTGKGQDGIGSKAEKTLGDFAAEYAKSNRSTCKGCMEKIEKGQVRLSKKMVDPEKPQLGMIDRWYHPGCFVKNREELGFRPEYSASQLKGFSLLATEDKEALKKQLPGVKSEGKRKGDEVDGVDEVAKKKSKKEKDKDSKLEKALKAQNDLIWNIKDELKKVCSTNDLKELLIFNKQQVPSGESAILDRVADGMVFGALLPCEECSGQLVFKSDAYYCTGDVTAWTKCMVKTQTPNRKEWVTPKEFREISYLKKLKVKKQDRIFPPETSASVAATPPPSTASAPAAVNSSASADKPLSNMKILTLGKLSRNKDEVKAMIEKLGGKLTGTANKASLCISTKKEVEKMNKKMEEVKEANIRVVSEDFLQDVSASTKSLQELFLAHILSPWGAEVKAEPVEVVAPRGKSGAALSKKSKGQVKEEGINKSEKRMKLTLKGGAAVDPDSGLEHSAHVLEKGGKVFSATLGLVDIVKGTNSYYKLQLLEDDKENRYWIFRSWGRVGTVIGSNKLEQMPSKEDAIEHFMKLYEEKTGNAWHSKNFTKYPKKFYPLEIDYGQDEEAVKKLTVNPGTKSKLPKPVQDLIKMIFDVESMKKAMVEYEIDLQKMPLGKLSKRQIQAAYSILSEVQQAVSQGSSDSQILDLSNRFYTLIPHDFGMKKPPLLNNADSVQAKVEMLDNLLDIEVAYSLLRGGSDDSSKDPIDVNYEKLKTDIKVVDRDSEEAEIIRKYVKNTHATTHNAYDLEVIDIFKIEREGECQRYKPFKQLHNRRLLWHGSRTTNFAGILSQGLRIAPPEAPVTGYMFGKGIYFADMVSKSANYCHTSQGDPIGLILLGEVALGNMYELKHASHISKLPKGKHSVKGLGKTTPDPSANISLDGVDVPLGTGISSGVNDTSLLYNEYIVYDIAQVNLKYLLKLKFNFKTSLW
Chain of Protein cereblon/Poly [ADP-ribose] polymerase 1 (Q96SW2 whole entry partner): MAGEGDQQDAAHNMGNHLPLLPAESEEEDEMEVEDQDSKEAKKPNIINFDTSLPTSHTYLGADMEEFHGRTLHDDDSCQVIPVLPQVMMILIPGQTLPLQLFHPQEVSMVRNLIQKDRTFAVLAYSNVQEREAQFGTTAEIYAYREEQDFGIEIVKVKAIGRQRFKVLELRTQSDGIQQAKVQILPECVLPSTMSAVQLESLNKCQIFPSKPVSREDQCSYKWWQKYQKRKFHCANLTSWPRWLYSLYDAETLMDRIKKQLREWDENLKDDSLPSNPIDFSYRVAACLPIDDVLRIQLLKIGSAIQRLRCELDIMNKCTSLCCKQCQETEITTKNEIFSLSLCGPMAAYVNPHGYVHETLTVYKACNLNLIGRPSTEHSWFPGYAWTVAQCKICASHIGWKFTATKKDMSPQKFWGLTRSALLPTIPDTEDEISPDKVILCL

Consider `O=C1CCC(N2C(=O)c3cccc(NC(=O)CNCCCCCCCCCCC(=O)N4CCN(C(=O)c5cc(Cc6n[nH]c(=O)c7ccccc67)ccc5F)CC4)c3C2=O)C(=O)N1` (configuration not stated), for which the values for the Activity in the series on PANC-1 [1], with PANC-1 [2] and in the series on PANC-1 [3] were 12.4%, 84.4% and roughly 11%, respectively. Besides, in the series with PANC-1 [4], the inhibition entry is “Active”. Further, the result in the series on PANC-1 [5], in the series with PANC-1 [6] and in the series with PANC-1 [7] was Active. Also, the Emax (commonly the maximal effect, on the per cent scale that the assay sets) in series [8] is greater than 95%.

For `O=C(c1cc(Cc2n[nH]c(=O)c3ccccc23)ccc1F)N1CCN(C(=O)C2CC2)CC1` [OLAPARIB], the CI with PANC-1 [9] is on record as less than 1.

As to `Cc1sc2c(c1C)C(c1ccc(Cl)cc1)=N[C@@H](CC(=O)OC(C)(C)C)c1nnc(C)n1-2`, the result in the series on PANC-1 [10], with PANC-1 [20], in the series with PANC-1 [25] and in the series on PANC-1 [30] was Active. The Activity is listed as 58.49% in the series on PANC-1 [11]; 4.08% with PANC-1 [12]; 5.44% with PANC-1 [14]; 53.78% in the series on PANC-1 [15]; 46.24% in the series with PANC-1 [16]; “Non-toxic” in series [17]. For the same compound, the Activity entry in [19] is reported as “Non-toxic”; in series [21] it was “Non-toxic”; in the series on PANC-1 [22], 4.54%; in series [23], “Non-toxic”; in the series on PANC-1 [24], 2.48%; in the series on PANC-1 [26], 35.66%. Also, the Activity result in [27] is “Non-toxic”; in the series on PANC-1 [28], 21.52%; in the series on PANC-1 [29] it was 10.75%; in series [31], “Non-toxic”; in the series on PANC-1 [32] it was 25.85%. Besides, the viability at 1 µM in the series on PANC-1 [13] was 80.3%. Also, the inhibition in vivo at 20 mg/kg with PANC-1 [18] came out at 80.7%.
